Laboratory results published in PubChem BioAssay AID2305 (GlaxoSmithKline (GSK), 2010).

Tested on: P. falciparum 3D7 growth, pLDH absorbance
Test: blood-stage malaria parasite growth potency – strain 3D7, dose response (AID 2305)

Row | SMILES | IC50 [nM]
1 | NS(=O)(=O)c1ccc(CNc2ccc3ncc(-c4ccc(OC(F)(F)F)cc4)n3n2)cc1 | 580
2 | COc1c(F)ccc2ncc(Cl)c(CCN3CCC(NCc4ccc5c(n4)NC(=O)CS5)CC3)c12 | 540
3 | Cc1cc(N[C@@H](Cc2ccccc2)C(=O)NCc2cccc(F)c2)nc(NCCc2ccccc2)n1 | 1020
4 | O=C(Nc1ccc(OC2CCN(Cc3ccc(F)cc3)CC2)c(Cl)c1)c1ccsc1 | 720
5 | CCCCN1CCCC[C@H]1[C@@H](O)c1ccnc2ccc(OCC)cc12 | 770
6 | Fc1ccccc1-c1cc(Nc2ccncc2)nc(-c2cccnc2)n1 | 260
7 | O=C(/C=C/c1ccc(Br)cc1)NCCCCCN1CCC(c2c[nH]c3ccccc23)CC1 | 720
8 | CN(C)C(CNC(=O)c1cc(-c2ccncc2)c(-c2ccc(NC(=O)Nc3ccccc3)cc2)o1)c1ccccc1 (centres undefined) | 600
9 | c1ccc2c(NCCCCCCNc3c4c(nc5ccccc35)CCCC4)c3c(nc2c1)CCCC3 | 200
10 | Cc1c(Cl)cccc1S(=O)(=O)Nc1ccc(CCN2CCC(N)CC2)cc1 | 1460
11 | C=CCOC(=O)N1CCC(CNCc2ccc(-c3ccc(-c4nc5ccc(C(F)(F)F)cc5[nH]4)cc3)cc2)C1 (centres undefined) | 150
12 | NC1CCN(Cc2ccc(-c3ccc(-c4nc5ccccc5[nH]4)cc3)cc2)C1 (centres undefined) | 150
13 | CC(C)C(NC(=O)Cc1cccc2ccccc12)C(=O)Nc1cccc(C#N)c1 (centres undefined) | 660
14 | CC(=O)Nc1cccc(Nc2nccc(Nc3ccc(Oc4ccccc4)cc3)n2)c1 | 750
15 | OCC1CCCCN1Cc1cccc(-c2cccc(-c3nc4ccccc4[nH]3)c2)c1 (centres undefined) | 780
16 | CC(C)C[C@@H](/C=N/N1CCNC1=O)NC(=O)[C@H](CC(C)C)NC(=O)c1ccc(OCCN2CCOCC2)cc1 | 190
17 | COCCOc1ccc(Nc2nccc(-c3c(-c4cccc(NC(=O)c5c(F)cccc5F)c4)nn4ccccc34)n2)cc1F | 950
18 | COc1ccc2nccc(NN=Cc3cccc(Cl)c3)c2c1 | 190
19 | CN(Cc1ccc(C#N)cc1)C1CCN(c2cc(NC(=O)c3ccc(F)cc3)ccn2)CC1 | 1430
20 | CCCCN(C)CC#Cc1ccc2[nH]c(C)c(Cl)c(=O)c2c1 | 130
21 | CN1CCN(c2ncnc3ccc(NC(=O)Nc4ccc(Cl)c(Cl)c4)cc23)CC1 | 260
22 | Cc1c(C(=O)[C@@H]2C[C@H]2CN2CCC(N3CCCCC3)CC2)sc2ccccc12 | 1020
23 | CCN(CC)CCN(Cc1ccc(-c2ccc(C(F)(F)F)cc2)cc1)C(=O)Cn1c(CCc2ccc(F)c(C#N)c2)nc(=O)c2ccccc21 | 770
24 | CN(C)CCCOc1ccc(CN2CC[C@H](NC(=O)c3ccc(Cl)c(Cl)c3)C2)c2ccccc12 | 880
25 | Cc1cccc2[nH]c(-c3cccc(-c4ccc(NC(=O)Nc5ccc(Cl)c(Cl)c5)cc4)c3)nc12 | 570

Row | SMILES | IC50 [nM]
26 | O=C(NCc1ccc(S(=O)(=O)N2CCC(CN3CCC(c4c[nH]c5ccccc45)CC3)CC2)s1)c1ccccc1 | 840
27 | Cc1ccccc1C1CCN(C2CCC(NC(=O)/C=C/c3ccc(C(F)(F)F)cc3F)CC2)CC1 (centres undefined) | 900
28 | N[C@@H](COc1cccc2c(-c3ccncc3)c(-c3cccc(NC(=O)Nc4ccccc4)c3)nn12)c1ccccc1 | 410
29 | Cc1ccc(/C=C/C(=O)NC2CCC(N3CCC(c4ccccc4C)CC3)CC2)cc1C (centres undefined) | 810
30 | CC(=O)Nc1cccc(/C=C/C(=O)N2CCC(N3CCCCC3)CC2)c1 | 1050
31 | CN(C)CCCn1cncc1-c1ccc2ncnc(Nc3ccc(OCc4ccccc4)cc3)c2c1 | 520
32 | CCCCC(CC)NC(=O)[C@H]1CNCCN1C(=O)CCCc1ccccc1 (some centres undefined) | 890
33 | COc1ccc2nccc([C@@H](O)CN3CCC(NCc4ccc5nc[nH]c(=O)c5c4)CC3)c2c1 | 920
34 | O=C(NN=Cc1nc2ccccc2[nH]1)c1cccc([N+](=O)[O-])c1 | 630
35 | COc1cc(C)nc2ccc(NC(=O)c3ccc(C(=O)Nc4ccc5nc(C)cc(OC)c5c4)cc3)cc12 | 60
36 | COC(=O)CCCCOc1c(OC)cc(Cc2cnc(N)nc2N)cc1OC | 40
37 | CCCc1cc(N2CCC(N3CCCC3)CC2)nc(Nc2ccc(Cl)cc2)n1 | 760
38 | O=C(NCc1cccc(F)c1)Nc1cccc(-c2ccc(-c3nc4ccc(C(F)(F)F)cc4[nH]3)cc2)c1 | 770
39 | Cc1cc(NC2CCN(Cc3ccccc3)CC2)nc(NCCCCc2ccccc2)n1 | 380
40 | CN1CCN(CCCN(Cc2csc(-c3ccc(CNCc4ccccc4)cc3)n2)C(=O)c2cc(F)cc(F)c2)CC1 | 710
41 | Cc1cccc(C)c1CNc1cccc(-c2nc(C)c(C)[nH]2)c1 | 880
42 | O=C(NC1CCC(CN2CCC(c3c[nH]c4ccccc34)CC2)CC1)c1cc(-c2ccccc2Cl)n(-c2cccc(Cl)c2)n1 (centres undefined) | 850
43 | Cc1ccc(CNC(=O)[C@H](CC(C)C)Nc2cc(C)nc(Nc3ccccc3)n2)cc1 | 1770
44 | CCN(CC)CCN(Cc1ccc(-c2ccc(C(F)(F)F)cc2)cc1)C(=O)Cn1cc(Cc2cnn(C)c2)c(=O)nc1/C=C/c1cccc(F)c1F | 960
45 | CC(C)N1CCC(N(Cc2ccc(-c3ccc(C(F)(F)F)cc3)cc2)C(=O)Cn2c(SCc3cccc(F)c3F)cc(=O)c3c2CCC3)CC1 | 1160
46 | CC(NC(=O)c1ccc(O)c(-c2ccc(Cl)c(Cl)c2)c1)C(=O)NC1CCCCC1 (centres undefined) | 840
47 | CCCCCCc1ncc(-c2cc3cc(O)c(-c4ccccc4)cc3oc2=O)s1 | 1240
48 | CC(=O)N[C@H](C(=O)Nc1ccc(-c2ccc(-c3nc4ccc(C(F)(F)F)cc4[nH]3)s2)cc1)C(C)C | 1030
49 | Cc1cccc2[nH]c(-c3ccc(-c4cccc(CNCc5ccccc5)c4)cc3)nc12 | 250
